In patent US12571052B2, “Immunomodulatory RNA” (THE TRUSTEES OF THE UNIVERSITY OF PENNSYLVANIA, priority 2017, dated 2026):
Entries after “also recorded” stand apart in the source; their conditions may differ.

Assays:
recombinant RIG-I = target: T1, recombinant RIG-I (Homo sapiens, UniProt O95786); experiment: RIG-I ATPase assay (ATP hydrolysis); type: biochemical; details: RNA added to recombinant RIG-I, equimolar amounts
T1 sequence (O95786 1-925): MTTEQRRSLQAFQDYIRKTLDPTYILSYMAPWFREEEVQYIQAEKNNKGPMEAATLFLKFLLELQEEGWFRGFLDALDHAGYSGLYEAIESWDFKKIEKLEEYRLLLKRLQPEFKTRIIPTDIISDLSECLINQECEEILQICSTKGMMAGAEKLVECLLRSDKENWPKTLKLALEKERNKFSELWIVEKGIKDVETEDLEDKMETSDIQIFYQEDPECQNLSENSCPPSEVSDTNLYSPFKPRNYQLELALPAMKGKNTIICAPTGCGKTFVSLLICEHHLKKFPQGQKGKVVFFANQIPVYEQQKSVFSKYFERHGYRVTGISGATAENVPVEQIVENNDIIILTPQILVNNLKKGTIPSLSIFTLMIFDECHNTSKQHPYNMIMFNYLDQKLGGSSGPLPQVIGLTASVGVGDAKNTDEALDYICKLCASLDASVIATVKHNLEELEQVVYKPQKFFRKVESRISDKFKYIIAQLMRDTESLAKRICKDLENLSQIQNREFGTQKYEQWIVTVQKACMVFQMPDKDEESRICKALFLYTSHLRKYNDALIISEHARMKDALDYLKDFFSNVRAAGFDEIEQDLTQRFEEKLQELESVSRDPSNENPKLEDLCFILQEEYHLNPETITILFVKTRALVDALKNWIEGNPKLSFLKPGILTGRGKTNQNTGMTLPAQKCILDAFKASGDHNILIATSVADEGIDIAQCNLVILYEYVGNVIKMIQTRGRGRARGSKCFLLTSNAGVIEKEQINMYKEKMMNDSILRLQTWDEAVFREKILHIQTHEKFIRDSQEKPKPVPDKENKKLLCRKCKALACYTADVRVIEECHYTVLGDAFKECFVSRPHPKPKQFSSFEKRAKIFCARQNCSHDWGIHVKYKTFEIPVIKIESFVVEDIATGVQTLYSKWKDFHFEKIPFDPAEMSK
Experimental: RIG-I ATPase Assays. RIG-I ATPase assays were performed as previously described (Devarkar et al. (2016) Proc. Natl. Acad. Sci. 113, 596-601). In brief, increasing amounts of RNA (10-60 nM) were added to a constant quantity of RIG-I (5 nM) in the presence of 1 mM ATP. ATP hydrolysis was measured with the EnzChek Phosphate Assay Kit (ThermoFisher) after 60-90 minutes at 37° C. ATP hydrolysis was then measured by absorbance of 360 nm compared to background. A 19-mer 5′triphosphate dsRNA (Invivogen) and DVG396 were used as positive controls and a 19-mer 5′OH dsRNA (Invivogen) and an in vitro transcribed 300 bp ssRNA stretch of GAPDH (GAPDH300) were used as negative controls.

[1] = system: 1833 ISG-R breast cancer xenografts; experiment: Intratumoral injection into subcutaneous 1833 xenografts; type: in vivo, athymic nude mice
Experimental: In Vivo Mouse Studies. For exosome injection studies, 1×10^6 1833 breast cancer cells were injected with Matrigel (Corning) into the flanks of 6-8 week old athymic nude mice and 10 μg of mono- or co-culture exosomes were directly injected into the tumors 3 times a week. For RNA injection studies, 50 ng of 7SL or GAPDH300 RNA encapsulated into RNAiMax liposomes were directly injected into the tumors 3 times a week. Subcutaneous tumor growth was measured by caliper. For lung colonization studies, 2×10^5 luciferase-labeled 4175 breast cancer cells were injected in the tail vein. Injections were confirmed by immediate imaging using a Xenogen IVIS 100 system. Serum was isolated from mice by cardiac puncture.

B16-F10 tumor cells = experiment: B16-F10/MEF co-implantation, tumor immune populations by flow cytometry; type: in vivo, C57BL/6 mice; details: for myeloid infiltration (macrophages, MDSCs) into the tumor microenvironment: tumors harvested 13 days later
Experimental: Mice were implanted with tumors as described FIGS. 25A-25B. Tumors were harvested 13 days later and assessed for infiltration of macrophages or myeloid derived suppressor cells (MDSCs). Macrophages are considered Lin−, F4/80+, and CD11b+ cells. MDSCs are considered Lin−, F4/80−, CD11c−, CD11b+, and Ly6C+ cells. Tumors were treated with anti-CTLA4 blocking antibody (FIG. 26D) as described in FIGS. 25A and 25B, and tumors were harvested at d15 to measure M2 polarization of macrophages as marked by CD206.
Furthermore, mice were implanted with the same tumors and subsequently treated with the CSF1R inhibitor BLZ945. Polarization of macrophages and frequency of CD103+DCs were tested.
In addition, mice were implanted with tumors and treated with anti-CTLA4+/−CSF1Ri BLZ945. Tumors were harvested 13 days later and immune populations were assessed using an unbiased clustering of flow cytometry data.
Mice were implanted with B16-F10 tumor cells mixed 1:1 with MEFs or MEFs co-expressing SRP9/14 (FIG. 35B). Tumors were harvested 2 weeks post-injection and analyzed for immune cell populations. Unshielded RN7SL1 increased the frequency of dendritic cells, the percentage of CD103+ dendritic cells, the percentage of CD69+CD8+ T cells, and the percentage of PD1+CD8+ T cells in tumors (FIG. 35C). […] Without wishing to be bound by theory, a CSF1R inhibitor blocks M2 polarization and may synergize with unshielded RN7SL1.

[2] = tumors harvested 2 weeks post-injection

RN7SL1: Human RN7SL1 (7SL, srpRNA) RNA, 5'ppp, in vitro transcribed or secreted unshielded in exosomes; SEQ ID NO: 2
RIG-I ATP helicase activity as measured by ATP hydrolysis (recombinant RIG-I): directly binds recombinant RIG-I; also recorded: comparable to an equimolar amount of Sendai virus-derived RNA (DVG396) | tumor growth ([1]; 50 ng liposome-encapsulated RNA intratumorally 3 times a week, RIG-I WT tumors): enhance tumor growth in a RIG-I-dependent manner | tumor growth ([1]; 50 ng liposome-encapsulated RNA intratumorally, RIG-I KO tumors): no effect was observed | ISG expression in tumors ([1]; tumors expressing WT RIG-I, human specific primers): an increase in ISG expression | T cell activation (B16-F10 tumor cells; dependent on MyD88): enhanced T cell activation | percentage of CD69+CD8+ T cells (B16-F10 tumor cells; [2]): increased | percentage of CD103+ dendritic cells (B16-F10 tumor cells; [2]): increased | percentage of PD1+CD8+ T cells (B16-F10 tumor cells; [2]): increased | percentages of macrophages and MDSCs in CD45+ cells (B16-F10 tumor cells; [2]): also increased | frequency of dendritic cells in tumors (B16-F10 tumor cells; tumors harvested 2 weeks post-injection, listed as Unshielded RN7SL1): increased | frequency of dendritic cells in tumors (B16-F10 tumor cells; tumors harvested 2 weeks post-injection, listed as unshielded 7SL1): increased the frequency of DCs in vivo | myeloid infiltration (macrophages, MDSCs) into the tumor microenvironment (B16-F10 tumor cells): triggered the infiltration of macrophages and MDSCs into the tumor microenvironment | myeloid infiltration (macrophages, MDSCs) into the tumor microenvironment (B16-F10 tumor cells; listed as unshielded 7SL): drives myeloid infiltration into the tumor microenvironment
